Experimental data from US8067614B2, “N-substituted (benzoimidazol-2-yl)phenylamines, processes for their preparation, their use as a medicament or diagnostic aid, and a medicament comprising them” (Sanofi-Aventis Deutschland GmbH, priority 2003, dated 2011).
Counter-ions that a name gives are not always drawn.

How the values were obtained:
[1] = test system: adrenergic alpha2 receptor; conditions: Ernsberger et al, Eur. J. Pharmacol. 134, 1, 1987; cited from earlier work
imidazoline I1 receptor = conditions: Ernsberger et al, Eur. J. Pharmacol. 134, 1, 1987; cited from earlier work
[2] = mediated by alpha2 and I1 receptors; Ernsberger et al.; cited from earlier work
rNHE3 = target: T1, rNHE3 (Rattus norvegicus, UniProt P26433); experiment: Recovery of intracellular pH after acidification (BCECF fluorescence) in LAP1 fibroblasts; type: cell-based
T1 construct: expressed in transfected cells; host or cells: LAP1 cells (fibroblasts)
T1 sequence (P26433 29-831): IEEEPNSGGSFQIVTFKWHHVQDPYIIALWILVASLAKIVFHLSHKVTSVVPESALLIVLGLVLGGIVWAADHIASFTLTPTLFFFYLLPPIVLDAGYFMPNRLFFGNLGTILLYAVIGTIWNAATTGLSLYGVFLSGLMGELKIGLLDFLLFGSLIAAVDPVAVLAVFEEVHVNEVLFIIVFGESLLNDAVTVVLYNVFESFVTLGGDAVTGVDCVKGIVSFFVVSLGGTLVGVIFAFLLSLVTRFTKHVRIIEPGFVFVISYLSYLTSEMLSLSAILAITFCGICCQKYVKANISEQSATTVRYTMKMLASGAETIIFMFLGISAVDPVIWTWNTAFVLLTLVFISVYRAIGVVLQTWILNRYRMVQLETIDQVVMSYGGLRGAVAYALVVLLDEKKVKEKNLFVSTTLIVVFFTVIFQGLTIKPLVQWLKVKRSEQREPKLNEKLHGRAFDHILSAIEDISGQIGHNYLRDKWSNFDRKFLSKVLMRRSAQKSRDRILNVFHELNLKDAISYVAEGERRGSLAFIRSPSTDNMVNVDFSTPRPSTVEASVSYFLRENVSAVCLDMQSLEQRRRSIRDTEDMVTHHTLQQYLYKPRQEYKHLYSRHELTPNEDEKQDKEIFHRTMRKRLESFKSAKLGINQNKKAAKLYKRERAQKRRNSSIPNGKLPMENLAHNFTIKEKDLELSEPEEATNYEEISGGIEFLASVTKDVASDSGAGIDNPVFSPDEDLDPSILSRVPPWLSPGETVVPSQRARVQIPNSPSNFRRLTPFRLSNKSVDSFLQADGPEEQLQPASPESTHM
Procedure: In this test, the recovery in the intracellular pH (pHi) after an acidification was ascertained, which is initiated if the NHE3 is capable of functioning, even under bicarbonate-free conditions. For this purpose, the pHi was determined using the pH-sensitive fluorescent dye BCECF (Calbiochem, the precursor BCECF-AM is employed). The cells (fibroblasts, LAP1 cells) were initially loaded with BCECF. The BCECF fluorescence was determined in a “Ratio Fluorescence Spectrometer” (Photon Technology International, South Brunswick, N.J., USA) at excitation wavelengths of 505 and 440 nm and an emission wavelength of 535 nm and converted into the pHi using calibration curves. The cells were incubated in NH4Cl buffer (pH 7.4) (NH4Cl buffer: 115 mM NaCl, 20 mM NH4Cl, 5 mM KCl, 1 mM CaCl2, 1 mM MgSO4, 20 mM Hepes, 5 mM glucose, 1 mg/ml BSA; a pH of 7.4 is adjusted with 1 M NaOH) even during the BCECF loading. The intracellular acidification was induced by adding 975 μl of an NH4Cl-free buffer (see below) to 25 μl aliquots of the cells incubated in NH4Cl buffer. The subsequent rate of pH recovery was recorded for three minutes. To calculate the inhibitory potency of the tested substances, the cells were initially investigated in buffers with which a complete or absolutely no pH recovery took place. For complete pH recovery (100%), the cells were incubated in Na^+-containing buffer (133.8 mM NaCl, 4.7 mM KCl, 1.25 mM CaCl2, 1.25 mM MgCl2, 0.97 mM Na2HPO4, 0.23 mM NaH2PO4, 5 mM Hepes, 5 mM glucose, a pH of 7.0 is adjusted with 1 M NaOH). To determine the 0% value, the cells were incubated in an Na^+-free buffer (133.8 mM choline chloride, 4.7 mM KCl, 1.25 mM CaCl2, 1.25 mM MgCl2, 0.97 mM K2HPO4, 0.23 mM KH2PO4, 5 mM Hepes, 5 mM glucose, a pH of 7.0 is adjusted with 1 M KOH). The substances to be tested were made up in the Na^+-containing buffer. The recovery of the intracellular pH at each test concentration of a substance was expressed as a percentage of the maximum recovery. The IC50 value for the particular substance for the individual NHE subtypes was calculated from the pH recovery percentages using the Sigma-Plot program.

NHE3 = conditions: M. Donowitz et al., Am. J. Physiol. 276; cited from earlier work

Row | Structure (SMILES) | IC50 (rNHE3) [µM] | further results
1 | Clc1cccc(Cl)c1N=C1NCCN1 [Clonidine] |  | affinity for the adrenergic alpha2 receptor [1]: high affinity; affinity for the imidazoline I1 receptor (imidazoline I1 receptor): high affinity; blood pressure-lowering effect [2]: strong blood pressure-lowering effect
2 | CC(C)N(c1nc2ccccc2[nH]1)c1c(Cl)cccc1Cl [Example 3, (1H-Benzoimidazol-2-yl)(2,6-dichlorophenyl)isopropylamine] | 9.3 | 
3 | C=CCN(c1nc2ccccc2[nH]1)c1c(Cl)cccc1Cl [Example 5, Allyl(1H-benzoimidazol-2-yl)(2,6-dichlorophenyl)amine] | 1.5 | 
4 | CC(C)[C@@H](CC[C@@H](C)[C@H]1CC[C@H]2[C@@H]3[C@H](O)C[C@H]4C[C@@H](NCCCNCCCCN)CC[C@]4(C)[C@H]3CC[C@]12C)OS(=O)(=O)O [Squalamine] |  | time to maximum strength of effect as NHE3 inhibitor (NHE3): only after one hour

Continued by falling IC50 (rNHE3), values first:

Row | IC50 (rNHE3) [µM] | Structure (SMILES) | further results
5 | 8.3 | Clc1cccc(Cl)c1N(c1nc2ccccc2[nH]1)C1CCCC1 [Example 6, (1H-Benzoimidazol-2-yl)cyclopentyl(2,6-dichlorophenyl)amine] | 
6 | 3.3 | CN(c1nc2cc(F)ccc2[nH]1)c1c(Cl)cccc1Cl [Example 4, (2,6-Dichlorophenyl)(5-fluoro-1H-benzoimidazol-2-yl)methylamine] | 
7 | 0.57 | CCN(c1nc2ccccc2[nH]1)c1c(Cl)cccc1Cl [Example 1, (1H-Benzoimidazol-2-yl)(2,6-dichlorophenyl)ethylamine] | 
8 | 0.53 | CN(c1nc2ccccc2[nH]1)c1c(Cl)cccc1Cl [Example 2, (1H-Benzoimidazol-2-yl)(2,6-dichlorophenyl)methylamine hydrochloride] | 
